Reference: the supplement of paper PMC10307832

Assays:
Assay in all cases: relative viability (nuclei count vs DMSO), 5 days (fraction); higher = more cells survive
AT9283 + Trametinib = compound: O=C(Nc1c[nH]nc1-c1nc2ccc(CN3CCOCC3)cc2[nH]1)NC1CC1 [AT9283] + CC(=O)Nc1cccc(-n2c(=O)n(C3CC3)c(=O)c3c(Nc4ccc(I)cc4F)n(C)c(=O)c(C)c32)c1 [Trametinib] (partner 0.02 µM)
Procedure, shortened: (§1)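 Nuclei were stained with Hoechst during a one-step fixation (final 0.05% Triton X-100, 1% formaldehyde, 1 ug/ml Hoechst) carried out 5 days after dosing, then counted on 4× images. The cells, lung cancer lines in 1536-well plates, had been dosed by pin tool the day after seeding with one drug alone or a fixed anchor-drug dose plus five library-drug doses (not always all listed) in √10 steps. Relative viability is the nuclei count in treated wells divided by that in vehicle wells, and each value is the median of duplicate plates.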

AT9283 + Phenformin = compound: O=C(Nc1c[nH]nc1-c1nc2ccc(CN3CCOCC3)cc2[nH]1)NC1CC1 [AT9283] + N=C(N)NC(=N)NCCc1ccccc1 [Phenformin] (partner 250 µM)
Procedure, shortened: as §1

Erlotinib + Vorinostat = compound: C#Cc1cccc(Nc2ncnc3cc(OCCOC)c(OCCOC)cc23)c1 [Erlotinib] + O=C(CCCCCCC(=O)Nc1ccccc1)NO [Vorinostat] (partner 1 µM)
Procedure, shortened: as §1

AT9283 + Crizotinib = compound: O=C(Nc1c[nH]nc1-c1nc2ccc(CN3CCOCC3)cc2[nH]1)NC1CC1 [AT9283] + C[C@@H](Oc1cc(-c2cnn(C3CCNCC3)c2)cnc1N)c1c(Cl)ccc(F)c1Cl [Crizotinib] (partner 1 µM)
Procedure, shortened: as §1

Erlotinib + Trametinib = compound: C#Cc1cccc(Nc2ncnc3cc(OCCOC)c(OCCOC)cc23)c1 [Erlotinib] + CC(=O)Nc1cccc(-n2c(=O)n(C3CC3)c(=O)c3c(Nc4ccc(I)cc4F)n(C)c(=O)c(C)c32)c1 [Trametinib] (partner 0.02 µM)
Procedure, shortened: as §1

Q: What does the source list for NCI-H441?
A: relative viability (AT9283 + Trametinib; first compound 0.003 µM): 0.259; relative viability (AT9283 + Trametinib; first compound 0.03 µM): 0.439; relative viability (AT9283 + Trametinib; first compound 0.09487 µM): 0.423; relative viability (AT9283 + Trametinib; first compound 0.3 µM): 0.22; relative viability (AT9283 + Phenformin; first compound 0.003 µM): 0.858; relative viability (AT9283 + Phenformin; first compound 0.03 µM): 0.853; relative viability (AT9283 + Phenformin; first compound 0.09487 µM): 0.286; relative viability (AT9283 + Phenformin; first compound 0.3 µM): 0.244; relative viability (Erlotinib + Vorinostat; first compound 0.02 µM): 0.841; relative viability (Erlotinib + Vorinostat; first compound 0.2 µM): 0.725; relative viability (Erlotinib + Vorinostat; first compound 0.6325 µM): 0.84; relative viability (Erlotinib + Vorinostat; first compound 2 µM): 0.745; relative viability (AT9283 + Crizotinib; first compound 0.003 µM): 0.614; relative viability (AT9283 + Crizotinib; first compound 0.03 µM): 0.635; relative viability (AT9283 + Crizotinib; first compound 0.09487 µM): 0.35; relative viability (AT9283 + Crizotinib; first compound 0.3 µM): 0.234; relative viability (Erlotinib + Trametinib; first compound 0.02 µM): 0.457; relative viability (Erlotinib + Trametinib; first compound 0.6325 µM): 0.442; relative viability (Erlotinib + Trametinib; first compound 2 µM): 0.328
